Key:
αllbβ3 integrin = target: T1, αllbβ3 integrin (Homo sapiens, UniProt P05106+P08514); test: ELISA: inhibition of binding of αllbβ3 integrin membrane preparation to coated extracellular matrix protein; conditions: human platelet membrane preparation
T1 construct: Human platelet membrane preparations were used as a source of αllbβ3 integrin; from tissue; host or cells: human platelets (membrane preparation)
In short: (§1)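 Wells were coated with fibrinogen or vitronectin (10 µg/well), and integrin binding was measured by ELISA. αIIbβ3 came from human platelet membranes and αVβ3 from WM-115 cells, each preincubated with compound. Bound integrin was detected with a rabbit anti-β3 antibody, an HRP secondary and a colorimetric readout.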

αVβ3 integrin = target: T2, αVβ3 integrin (Homo sapiens, UniProt P05106+P06756); test: ELISA: inhibition of binding of αVβ3 integrin (source WM-115 cell line) to coated extracellular matrix protein; conditions: WM-115 cell line as integrin source
T2 construct: the cell line WM-115 was used as a source of αVβ3 integrin; endogenous in cells; host or cells: WM-115 cell line
T2 sequence (P06756 31-889 limits assumed): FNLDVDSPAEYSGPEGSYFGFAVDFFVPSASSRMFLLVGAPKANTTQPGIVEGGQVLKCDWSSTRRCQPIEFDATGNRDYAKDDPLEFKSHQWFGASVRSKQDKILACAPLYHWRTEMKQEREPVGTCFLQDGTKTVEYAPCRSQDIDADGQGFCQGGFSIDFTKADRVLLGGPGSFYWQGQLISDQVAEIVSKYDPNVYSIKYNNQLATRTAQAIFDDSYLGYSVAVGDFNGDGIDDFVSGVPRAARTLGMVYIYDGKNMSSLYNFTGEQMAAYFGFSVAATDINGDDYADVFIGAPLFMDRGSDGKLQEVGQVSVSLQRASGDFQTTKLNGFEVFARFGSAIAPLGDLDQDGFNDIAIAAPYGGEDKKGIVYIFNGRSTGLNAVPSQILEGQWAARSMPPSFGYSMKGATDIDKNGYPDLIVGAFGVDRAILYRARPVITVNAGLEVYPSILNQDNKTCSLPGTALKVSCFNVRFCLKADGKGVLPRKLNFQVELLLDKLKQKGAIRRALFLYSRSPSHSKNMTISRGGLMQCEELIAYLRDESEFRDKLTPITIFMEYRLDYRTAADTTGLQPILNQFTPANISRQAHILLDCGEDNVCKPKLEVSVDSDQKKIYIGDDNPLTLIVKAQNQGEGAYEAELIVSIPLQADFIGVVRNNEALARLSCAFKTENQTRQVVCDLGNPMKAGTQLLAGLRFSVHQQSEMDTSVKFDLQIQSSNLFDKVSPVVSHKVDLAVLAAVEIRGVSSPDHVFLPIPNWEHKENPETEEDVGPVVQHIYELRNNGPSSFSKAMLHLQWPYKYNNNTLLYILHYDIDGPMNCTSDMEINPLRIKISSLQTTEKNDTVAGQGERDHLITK
T2 sequence (P06756 891-1048 partner limits assumed): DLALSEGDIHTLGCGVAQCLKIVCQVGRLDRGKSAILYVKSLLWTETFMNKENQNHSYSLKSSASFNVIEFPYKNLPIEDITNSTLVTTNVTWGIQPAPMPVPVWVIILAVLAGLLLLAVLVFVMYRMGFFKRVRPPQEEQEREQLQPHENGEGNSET
T2 sequence (P05106 27-788): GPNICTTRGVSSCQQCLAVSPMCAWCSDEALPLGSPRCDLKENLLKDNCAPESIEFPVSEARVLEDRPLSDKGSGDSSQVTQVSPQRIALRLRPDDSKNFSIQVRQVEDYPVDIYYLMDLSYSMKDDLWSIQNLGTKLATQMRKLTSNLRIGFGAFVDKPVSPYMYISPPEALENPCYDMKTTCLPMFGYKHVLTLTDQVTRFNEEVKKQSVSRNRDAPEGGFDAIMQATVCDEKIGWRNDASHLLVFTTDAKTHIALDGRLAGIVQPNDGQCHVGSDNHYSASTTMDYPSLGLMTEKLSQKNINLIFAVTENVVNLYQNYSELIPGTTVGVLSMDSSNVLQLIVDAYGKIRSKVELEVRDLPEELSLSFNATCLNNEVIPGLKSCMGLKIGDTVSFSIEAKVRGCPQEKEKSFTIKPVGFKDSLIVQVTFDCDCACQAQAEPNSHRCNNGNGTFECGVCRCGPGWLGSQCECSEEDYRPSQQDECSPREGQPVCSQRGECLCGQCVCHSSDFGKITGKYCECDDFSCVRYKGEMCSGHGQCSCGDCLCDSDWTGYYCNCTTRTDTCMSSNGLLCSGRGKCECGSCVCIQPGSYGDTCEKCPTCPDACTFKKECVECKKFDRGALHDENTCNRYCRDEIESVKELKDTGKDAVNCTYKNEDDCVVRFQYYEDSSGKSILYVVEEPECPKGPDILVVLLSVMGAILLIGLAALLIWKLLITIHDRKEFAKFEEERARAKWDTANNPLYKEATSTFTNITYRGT
In short: as §1

T1 sequence (P08514 32-887 limits assumed): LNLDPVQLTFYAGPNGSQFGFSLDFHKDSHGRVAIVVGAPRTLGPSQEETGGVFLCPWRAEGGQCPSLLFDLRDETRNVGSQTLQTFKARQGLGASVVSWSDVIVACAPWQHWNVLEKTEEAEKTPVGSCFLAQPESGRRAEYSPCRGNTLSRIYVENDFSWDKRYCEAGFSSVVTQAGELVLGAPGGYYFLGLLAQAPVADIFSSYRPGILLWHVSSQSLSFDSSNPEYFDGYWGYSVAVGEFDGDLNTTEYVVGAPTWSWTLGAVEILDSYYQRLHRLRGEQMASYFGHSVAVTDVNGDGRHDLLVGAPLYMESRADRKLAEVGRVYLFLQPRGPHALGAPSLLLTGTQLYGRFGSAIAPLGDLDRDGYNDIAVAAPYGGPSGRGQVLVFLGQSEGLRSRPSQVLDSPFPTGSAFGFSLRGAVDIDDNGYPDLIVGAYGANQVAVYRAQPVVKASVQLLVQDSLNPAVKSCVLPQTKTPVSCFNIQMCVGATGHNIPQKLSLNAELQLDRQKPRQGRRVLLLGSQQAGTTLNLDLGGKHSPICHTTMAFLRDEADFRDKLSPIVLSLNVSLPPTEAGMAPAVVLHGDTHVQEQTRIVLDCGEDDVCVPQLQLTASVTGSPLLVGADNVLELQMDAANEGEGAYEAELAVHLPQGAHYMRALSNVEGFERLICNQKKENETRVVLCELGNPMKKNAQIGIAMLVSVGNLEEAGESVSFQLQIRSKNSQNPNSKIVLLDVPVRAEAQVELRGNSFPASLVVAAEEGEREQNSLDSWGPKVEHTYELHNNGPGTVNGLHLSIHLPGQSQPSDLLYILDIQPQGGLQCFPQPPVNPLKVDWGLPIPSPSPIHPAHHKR
T1 sequence (P08514 891-1039 partner limits assumed): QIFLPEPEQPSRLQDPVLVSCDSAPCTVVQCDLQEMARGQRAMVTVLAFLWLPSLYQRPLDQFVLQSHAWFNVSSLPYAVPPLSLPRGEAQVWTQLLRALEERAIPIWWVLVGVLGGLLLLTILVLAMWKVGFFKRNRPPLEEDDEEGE
T1 sequence (P05106 27-788): as the sequence (P05106 27-788) above

Structure (SMILES)	INHIBITION @ 250 uM RECEPTOR allBb3 SUBSTRATE FIBRINOGEN (αllbβ3 integrin)	INHIBITION 250 uM RECEPTOR allBb3 SUBSTRATE VITRONECTIN (αllbβ3 integrin)	INHIBITION 250 uM RECEPTOR aVb3 SUBSTRATE FIBRINOGEN (αVβ3 integrin)
COC1OC(COCC(=O)O)C(O)C(OCc2ccccc2)C1NC(=O)c1cc(N)cc(N)c1 (single isomer, unassigned) [Compound 130]	− (0% to 35% inhibition at 250 micromolar)	+++ (81% to 100% inhibition at 250 micromolar)	− (0% to 35% inhibition at 250 micromolar)
COC1OC(COCC(=O)O)C(O)C(OCc2ccccc2)C1NC(=O)c1cc(N)cc(N)c1 (single isomer, unassigned) [Compound 131]	+ (36% to 60% inhibition at 250 micromolar)	+++ (81% to 100% inhibition at 250 micromolar)	− (0% to 35% inhibition at 250 micromolar)
COC1OC(COCC(=O)O)C(O)C(OCc2ccccc2)C1NC(=O)C1CCNCC1 (single isomer, unassigned) [Compound 134]	+++ (81% to 100% inhibition at 250 micromolar)	+++ (81% to 100% inhibition at 250 micromolar)	− (0% to 35% inhibition at 250 micromolar)
COC1OC(COCC(=O)O)C(O)C(OCc2ccccc2)C1NC(=O)C1CCNCC1 (single isomer, unassigned) [Compound 136]	+++ (81% to 100% inhibition at 250 micromolar)	–	− (0% to 35% inhibition at 250 micromolar)
COC1OC(COCC(=O)O)C(O)C(OCc2ccccc2)C1NC(=O)C1CCC(CN)CC1 (single isomer, unassigned) [Compound 137]	+++ (81% to 100% inhibition at 250 micromolar)	+++ (81% to 100% inhibition at 250 micromolar)	++ (61% to 80% inhibition at 250 micromolar)
COC1OC(COCC(=O)O)C(O)C(OCc2ccccc2)C1NC(=O)C1CCC(CN)CC1 (single isomer, unassigned) [Compound 138]	− (0% to 35% inhibition at 250 micromolar)	+++ (81% to 100% inhibition at 250 micromolar)	− (0% to 35% inhibition at 250 micromolar)
Nc1cccc(C(=O)N[C@H]2C(O)O[C@H](COCC(=O)O)[C@@H](O)[C@@H]2OCc2ccc(Br)cc2)c1 (some centres unmarked) [Compound 2]	++ (61% to 80% inhibition at 250 micromolar)	+++ (81% to 100% inhibition at 250 micromolar)	++ (61% to 80% inhibition at 250 micromolar)
Nc1cccc(COC[C@H]2OC[C@H](NC(=O)c3ccccc3)[C@@H](OCC(=O)O)[C@@H]2O)c1 [Compound 56]	− (0% to 35% inhibition at 250 micromolar)	+++ (81% to 100% inhibition at 250 micromolar)	++ (61% to 80% inhibition at 250 micromolar)
CCOC1O[C@H](COCc2cccc(N)c2)[C@@H](O)[C@H](OCc2ccc(C(=O)O)cc2)[C@H]1NC(=O)c1ccc(Cl)cc1 (some centres unmarked) [Compound 65]	− (0% to 35% inhibition at 250 micromolar)	+++ (81% to 100% inhibition at 250 micromolar)	− (0% to 35% inhibition at 250 micromolar)
Nc1cccc(COC2C(NC(=O)c3ccc(Cl)cc3)COC(COCC(=O)O)C2O)c1 (centres unmarked) [Compound 80]	++ (61% to 80% inhibition at 250 micromolar)	+++ (81% to 100% inhibition at 250 micromolar)	+ (36% to 60% inhibition at 250 micromolar)

Source: US20080176936A1, “Classes of Compounds that Interact with Integrins” (priority 2005, published 2008)
